Here are results for 8 molecules from patent US20250011352A1, “SOLID FORMS” (priority 2023, published 2025).

Series [1] is described as follows: Dynamic Vapor Sorption (DVS) hygroscopicity. The format is physicochemical. To be noted: from 0 to 90% RH at 25° C. Here is the method:
Dynamic Vapor Sorption (DVS) was used to study hygroscopicity on Model Q5000 SA (TA Instruments, New Castle, DE). A sample (1-10 mg) was placed in an aluminum pan and loaded on the sample side of the twin pan balance. The water sorption and desorption were studied as a function of relative humidity (RH) at 25° C. in 10% RH increments from 0% RH to 90% RH and then back to 0%. […] Data analysis was performed using Universal Analysis 2000 Version 4.7A (TA Instruments, New Castle, DE).

The nature of series [2]: Atropisomer interconversion detected by 19F-NMR in deuterated DMSO. The format is physicochemical. The conditions noted are these: deuterated DMSO solution, deuterated DMSO at 25° C. Here is the method: Compound 1 has two restricted rotational axes, resulting in 4 atropisomers (see FIG. 1) that may be detected by ^19F-NMR.
^19F Nuclear Magnetic Resonance spectra were collected on a Varian 400-MR 400 MHz instrument with 7620AS sample changer. Some of the parameters were adjusted as follows: number of scans: 1; spin: 0 (off); steady state scans: 0 (off). Samples were prepared as a solution of 20 mg in 0.75 mL of dimethyl sulfoxide-d6. The time from solvent addition to end of data acquisition should be ≤5 minutes. Off-line analysis was conducted using MNova software.

Where a name gives a salt, the structure may show the parent alone. Read-outs that look alike come from different tables or passages of the source.

For `Cc1cc(CC(=O)O)c(C(C)(C)CC(=O)N(c2nn(CC(F)(F)F)c3c(-c4ccc(C#CC(C)(C)S(C)(=O)=O)nc4[C@H](Cc4cc(F)cc(F)c4)NC(=O)Cn4nc(C(F)(F)F)c5c4C(F)(F)[C@@H]4C[C@H]54)ccc(Cl)c23)S(C)(=O)=O)c(OP(=O)(O)O)c1` [Compound 1, crystalline Form I], the “water uptake (DVS)” value in series [1] was “about 4%”.
For `Cc1cc(CC(=O)O)c(C(C)(C)CC(=O)N(c2nn(CC(F)(F)F)c3c(-c4ccc(C#CC(C)(C)S(C)(=O)=O)nc4[C@H](Cc4cc(F)cc(F)c4)NC(=O)Cn4nc(C(F)(F)F)c5c4C(F)(F)[C@@H]4C[C@H]54)ccc(Cl)c23)S(C)(=O)=O)c(OP(=O)(O)O)c1` [Compound 1, 2-(2-(4-(N-(4-chloro-7-(2-((S)-1-(2-((3bS,4aR)-5,5-difluoro-3-(trifluoromethyl)-3b,4,4a,5-tetrahydro-1H-cyclopropa[3,4]cyclopenta[1,2-c]pyrazol-1-yl)acetamido)-2-(3,5-difluorophenyl)ethyl)-6-(3-methyl-3-(methylsulfonyl)but-1-yn-1-yl)pyridin-3-yl)-1-(2,2,2-trifluoroethyl)-1H-indazol-3-yl)methylsulfonamido)-2-methyl-4-oxobutan-2-yl)-5-methyl-3-(phosphonooxy)phenyl)acetic acid], the half-life at 26.7 mg/mL in series [2] (read-out: half-life of conversion from the major to the minor atropisomer for the biaryl rotation (converted)) is roughly 71.6 h; in series [2] (read-out: half-life of interconversion at the 2nd rotational axis) it was roughly 0.117 h.
Turning to `Cc1cc(CC(=O)O)c(C(C)(C)CC(=O)N(c2nn(CC(F)(F)F)c3c(-c4ccc(C#CC(C)(C)S(C)(=O)=O)nc4[C@H](Cc4cc(F)cc(F)c4)NC(=O)Cn4nc(C(F)(F)F)c5c4C(F)(F)[C@@H]4C[C@H]54)ccc(Cl)c23)S(C)(=O)=O)c(OP(=O)(O)O)c1` [Compound 1, Material A], in series [1], the “water uptake (DVS)” value is “about 4.6%”.
For `Cc1cc(CC(=O)O)c(C(C)(C)CC(=O)N(c2nn(CC(F)(F)F)c3c(-c4ccc(C#CC(C)(C)S(C)(=O)=O)nc4[C@H](Cc4cc(F)cc(F)c4)NC(=O)Cn4nc(C(F)(F)F)c5c4C(F)(F)[C@@H]4C[C@H]54)ccc(Cl)c23)S(C)(=O)=O)c(OP(=O)(O)O)c1` [Compound 1 maleate], the “water uptake (DVS)” value in series [1] is “about 2.5%”.
For `Cc1cc(CC(=O)OC(C)(C)C)c(C(C)(C)CC(=O)N(c2nn(CC(F)(F)F)c3c(-c4ccc(C#CC(C)(C)S(C)(=O)=O)nc4[C@H](Cc4cc(F)cc(F)c4)NC(=O)Cn4nc(C(F)(F)F)c5c4C(F)(F)[C@@H]4C[C@H]54)ccc(Cl)c23)S(C)(=O)=O)c(OP(=O)(OC(C)(C)C)OC(C)(C)C)c1` [Compound 2, crystalline Form I], the “water uptake (DVS)” value in series [1] is given as “about 2.7%”.
Still for that read-out and setting: the result for `Cc1cc(CC(=O)O)c(C(C)(C)CC(=O)N(c2nn(CC(F)(F)F)c3c(-c4ccc(C#CC(C)(C)S(C)(=O)=O)nc4[C@H](Cc4cc(F)cc(F)c4)NC(=O)Cn4nc(C(F)(F)F)c5c4C(F)(F)[C@@H]4C[C@H]54)ccc(Cl)c23)S(C)(=O)=O)c(OP(=O)(O)O)c1` [Compound 1 succinate] reads “about 1.7%”; that for `Cc1cc(CC(=O)O)c(C(C)(C)CC(=O)N(c2nn(CC(F)(F)F)c3c(-c4ccc(C#CC(C)(C)S(C)(=O)=O)nc4[C@H](Cc4cc(F)cc(F)c4)NC(=O)Cn4nc(C(F)(F)F)c5c4C(F)(F)[C@@H]4C[C@H]54)ccc(Cl)c23)S(C)(=O)=O)c(OP(=O)(O)O)c1` [Compound 1, crystalline Form III], “about 1.6%”; that for `Cc1cc(CC(=O)O)c(C(C)(C)CC(=O)N(c2nn(CC(F)(F)F)c3c(-c4ccc(C#CC(C)(C)S(C)(=O)=O)nc4[C@H](Cc4cc(F)cc(F)c4)NC(=O)Cn4nc(C(F)(F)F)c5c4C(F)(F)[C@@H]4C[C@H]54)ccc(Cl)c23)S(C)(=O)=O)c(OP(=O)(O)O)c1` [Compound 1, crystalline Form II], “about 1%”.
